Experimental data reported in paper PMC11996873, “Asparagine drives immune evasion in bladder cancer via RIG-I stability and type I IFN signaling” (The Journal of Clinical Investigation, 2025).
pKd: −log10 of the molar value.

Target: T1, RIG-I (Homo sapiens, UniProt O95786)
T1 construct: gene RIGI
T1 sequence (O95786 1-925): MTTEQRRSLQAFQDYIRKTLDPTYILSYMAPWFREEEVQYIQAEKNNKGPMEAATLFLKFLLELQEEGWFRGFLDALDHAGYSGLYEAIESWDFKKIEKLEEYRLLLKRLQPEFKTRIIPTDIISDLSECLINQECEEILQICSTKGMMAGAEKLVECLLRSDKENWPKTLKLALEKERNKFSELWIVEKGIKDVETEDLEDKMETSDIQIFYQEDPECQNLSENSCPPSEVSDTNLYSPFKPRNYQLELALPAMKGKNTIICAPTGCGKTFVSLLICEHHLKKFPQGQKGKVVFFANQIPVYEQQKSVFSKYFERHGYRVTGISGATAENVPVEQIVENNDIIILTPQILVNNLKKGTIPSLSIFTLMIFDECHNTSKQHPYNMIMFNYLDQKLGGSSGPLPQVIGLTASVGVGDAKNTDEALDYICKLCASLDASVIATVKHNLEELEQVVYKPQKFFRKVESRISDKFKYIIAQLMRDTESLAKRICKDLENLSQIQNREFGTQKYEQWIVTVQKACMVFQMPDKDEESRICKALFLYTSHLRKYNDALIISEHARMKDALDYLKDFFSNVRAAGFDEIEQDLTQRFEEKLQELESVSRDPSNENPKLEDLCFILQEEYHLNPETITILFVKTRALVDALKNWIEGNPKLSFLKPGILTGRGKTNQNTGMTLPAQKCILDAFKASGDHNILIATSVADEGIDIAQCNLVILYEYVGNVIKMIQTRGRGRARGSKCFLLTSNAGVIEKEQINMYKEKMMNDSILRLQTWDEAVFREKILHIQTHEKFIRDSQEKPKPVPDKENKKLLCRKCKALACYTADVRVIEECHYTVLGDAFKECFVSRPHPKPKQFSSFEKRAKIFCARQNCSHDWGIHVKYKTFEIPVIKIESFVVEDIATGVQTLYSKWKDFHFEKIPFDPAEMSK
Experiment: microscale thermophoresis (Monolith NT.[…])
Type: binding

pKd: 3.52
SMILES: NC(=O)C[C@H](N)C(=O)O [asparagine]
